Reference: patent US20230348376A1 (TEIJIN PHARMA LIMITED, priority 2020, published 2023)
Where two headings read alike, the source gives them in different places.

Columns and labels:
[1] = tested on: rat oligodendrocyte progenitor cells; assay: Promotive activity of rat oligodendrocyte progenitor cell differentiation-2 (immunostaining of MBP); assay type: cell-based; settings: vitamin D derivative 2 μM, T3 30 nM, 4 days
Method: The promotive activity of oligodendrocyte progenitor cell (OPC) differentiation of the vitamin D derivatives was evaluated by immunostaining of MBP.
Subsequently, oligodendrocyte progenitor cell separation medium was added to the flask, and the mixture was similarly shaken for about 22 hours (37° C., 200 rpm), and the supernatant was collected to prepare oligodendrocyte progenitor cells.

[2] = Evaluation of brain penetration in mice (blood and brain concentration at brain Cmax); assay type: in vivo, mouse; settings: 1 mg/kg single oral dose, C57BL/6J mice; for Concentration in blood (mean ± SD) at brain Cmax / Concentration in brain (mean ± SD) at brain Cmax: n=3; for Kp: male, C57BL/6J, mouse, brain/plasma, po, 1 mg/kg, read-out: Concentration in brain/in blood ratio at brain Cmax
Method: The administration solution was administered orally to C57BL/6J mice (8 weeks old, male, n=3) at a single dose (1 mg/kg). Mice were euthanized at 6 points of 0.25, 0.5, 1, 2, 4, and 8 hours after administration, and plasma and brain sampling were performed. After preparing a homogenate from the collected brain using Tissue Lyser II (QIAGEN #85300), acetonitrile was added to the homogenate and the homogenate was centrifuged (12000 rpm, 5 minutes) to extract the administered test compound contained in the brain. Similarly, the plasma was subjected to addition of acetonitrile and centrifugal separation to extract the administered test compound contained in the plasma. Each extracted sample was subjected to measurement of the concentration of administered test compound using LC/MS/MS (SHIMADZU UFLC/MS/MS (8050)).
Test 2 [0.2 mg/kg Administration Study] […] The administration solution was administered orally to C57BL/6J mice (8 weeks old, male, n=3) at a single dose (0.2 mg/kg). Mice were euthanized at 6 points of 0.25, 0.5, 1, 2, 4, and 8 hours after administration, and plasma and brain sampling were performed. After preparing a homogenate from the collected brain using Tissue Lyser II (QIAGEN #85300), acetonitrile was added to the homogenate and the homogenate was centrifuged (12000 rpm, 5 minutes) to extract the administered compound contained in the brain. Similarly, the plasma was subjected to addition of acetonitrile and centrifugal separation to extract the administered test compound contained in the plasma. Each extracted sample was subjected to measurement of the concentration of administered test compound using LC/MS/MS (SHIMADZU UFLC/MS/MS (8050)).

human VDR = biological target: T1, human VDR (Homo sapiens, UniProt P11473); assay: Evaluation of VDR transcription activity in human osteoblasts (HOS cells), luciferase reporter; settings: HOS cells transfected with human VDR, human RXRα and DR3 luciferase reporter, 21 hours
T1 sequence (P11473 1-427): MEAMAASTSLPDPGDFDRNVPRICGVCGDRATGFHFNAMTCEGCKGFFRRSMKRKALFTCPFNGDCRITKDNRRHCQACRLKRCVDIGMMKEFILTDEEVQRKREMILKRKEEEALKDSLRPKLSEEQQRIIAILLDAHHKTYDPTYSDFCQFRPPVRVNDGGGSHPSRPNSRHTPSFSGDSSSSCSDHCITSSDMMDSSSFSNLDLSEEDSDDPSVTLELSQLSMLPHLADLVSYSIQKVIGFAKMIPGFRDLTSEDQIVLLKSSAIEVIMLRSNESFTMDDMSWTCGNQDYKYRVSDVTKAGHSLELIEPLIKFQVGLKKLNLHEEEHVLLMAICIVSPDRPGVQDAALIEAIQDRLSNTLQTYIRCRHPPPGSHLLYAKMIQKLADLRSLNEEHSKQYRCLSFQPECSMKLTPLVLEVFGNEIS
T1 sequence (P19793 1-462 partner): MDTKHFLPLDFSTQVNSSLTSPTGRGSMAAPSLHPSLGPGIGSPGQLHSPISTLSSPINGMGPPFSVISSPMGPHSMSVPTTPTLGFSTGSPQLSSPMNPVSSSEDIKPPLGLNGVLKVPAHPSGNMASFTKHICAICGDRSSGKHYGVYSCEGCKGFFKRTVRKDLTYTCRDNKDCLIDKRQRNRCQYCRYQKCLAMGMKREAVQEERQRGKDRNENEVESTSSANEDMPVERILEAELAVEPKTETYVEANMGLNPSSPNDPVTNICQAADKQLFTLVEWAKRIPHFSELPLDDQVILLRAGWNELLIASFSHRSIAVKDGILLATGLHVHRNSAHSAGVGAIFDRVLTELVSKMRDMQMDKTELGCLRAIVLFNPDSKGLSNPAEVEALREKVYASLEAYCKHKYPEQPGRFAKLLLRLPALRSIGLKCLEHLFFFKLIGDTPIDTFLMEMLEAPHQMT

[3] = Activity (EC50, VDR transcription activity)
[4] = read-out: Activity (EC50, VDR transcription activity)

Row | SMILES | Concentration in blood (mean ± SD) at brain Cmax [2] | Concentration in brain (mean ± SD) at brain Cmax [2] | Kp [2] | EC50 (human VDR; [3]) | further results
1 | C=C1[C@H](O)CC(=C/C=C2\CCC[C@]3(C)[C@@H]([C@H](C)CN4CCCC[C@@H]4C)CC[C@@H]23)C[C@H]1O [Compound H001, (1R,3R)-5-(2-((1R,3aS,7aR,E)-7a-methyl-1-((S)-1-((S)-2-methylpiperidin-1-yl)propan-2-yl)octahydro-4H-inden-4-ylidene)ethylidene)-2-methylenecyclohexane-1,3-diol] | – | – | – | – | Mean (number of MBP-positive cells/number of Hoechst33342-positive cells) ([1]; Test 7): 0.48
2 | COC(C)(C)[C@H]1CCCN1C[C@@H](C)[C@H]1CC[C@H]2/C(=C/C=C3C[C@@H](O)C[C@H](O)C3)CCC[C@]12C [Compound G015, (1R,3R)-5-(2-((1R,3aS,7aR,E)-1-((S)-1-((R)-2-(2-methoxypropan-2-yl)pyrrolidin-1-yl)propan-2-yl)-7a-methyloctahydro-4H-inden-4-ylidene)ethylidene)cyclohexane-1,3-diol] | – | – | – | – | Mean (number of MBP-positive cells/number of Hoechst33342-positive cells) ([1]; Test 6): 0.52
3 | C[C@H](CN1CCN(C)C[C@@H]1C)[C@H]1CC[C@H]2/C(=C/C=C3C[C@@H](O)C[C@H](O)C3)CCC[C@]12C [Compound G011, (1R,3R)-5-(2-((1R,3aS,7aR,E)-1-((S)-1-((S)-2,4-dimethylpiperazin-1-yl)propan-2-yl)-7a-methyloctahydro-4H-inden-4-ylidene)ethylidene)cyclohexane-1,3-diol] | – | – | – | – | Mean (number of MBP-positive cells/number of Hoechst33342-positive cells) ([1]; Test 5): 0.22
4 | C=C1/C(=C\C=C2/CCC[C@]3(C)[C@@H]([C@@H](C)CN4CC[C@H](F)C4)CC[C@@H]23)C[C@@H](O)C[C@@H]1O [Compound B018, (1R,3S,Z)-5-(2-((1R,3aS,7aR,E)-1-((R)-1-((S)-3-fluoropyrrolidin-1-yl)propan-2-yl)-7a-methyloctahydro-4H-inden-4-ylidene)ethylidene)-4-methylenecyclohexane-1,3-diol] | 841 ± 197 nM | 533 ± 197 pmol/g | 0.63 | 10 to 100 nM | –
5 | C[C@H](CN1CCC(O)(C(F)(F)F)C1)[C@H]1CC[C@H]2/C(=C/C=C3C[C@@H](O)C[C@H](O)C3)CCC[C@]12C (single isomer, unassigned) [Compound B045a] | 530 ± 97 nM | 185 ± 116 pmol/g | 0.35 | < 1 nM | –
6 | C[C@H](CN1CCC(O)(C(F)(F)F)C1)[C@H]1CC[C@H]2/C(=C/C=C3C[C@@H](O)C[C@H](O)C3)CCC[C@]12C (single isomer, unassigned) [Compound B045b] | 444 ± 113 nM | 109 ± 22 pmol/g | – | – | Concentration in brain/in blood ratio at brain Cmax [2]: 0.25; EC50 (human VDR; [4]): < 1 nM
7 | C[C@H](CN1CC[C@@](C)(O)C1)[C@H]1CC[C@H]2/C(=C/C=C3CC(O)C[C@H](O)C3)CCC[C@]12C (stereo in doubt) [Compound B075, (1R,3S)-5-(2-((1R,3aS,7aR,E)-1-((S)-1-((R)-3-hydroxy-3-methylpyrrolidin-1-yl)propan-2-yl)-7a-methyloctahydro-4H-inden-4-ylidene)ethylidene)cyclohexane-1,3-diol] | – | – | – | 100 to 1000 nM | –
8 | C=C1/C(=C\C=C2/CCC[C@]3(C)[C@@H]([C@H](C)CN4CCC(O)(C(F)(F)F)C4)CC[C@@H]23)C[C@@H](O)C[C@@H]1O (single isomer, unassigned) [Compound B044b] | – | – | – | – | EC50 (human VDR; [4]): < 1 nM
9 | C[C@H](CN1CC[C@H](C(C)(F)F)C1)[C@H]1CC[C@H]2/C(=C/C=C3C[C@@H](O)C[C@H](O)C3)CCC[C@]12C [Compound B030, (1R,3R)-5-(2-((1R,3aS,7aR,E)-1-((S)-1-((S)-3-(1,1-difluoroethyl)pyrrolidin-1-yl)propan-2-yl)-7a-methyloctahydro-4H-inden-4-ylidene)ethylidene)cyclohexane-1,3-diol] | – | – | – | 10 to 100 nM | –

Continued, in another order:

Row | Concentration in blood (mean ± SD) at brain Cmax [2] | Concentration in brain (mean ± SD) at brain Cmax [2] | Kp [2] | EC50 (human VDR; [3]) | SMILES | further results
10 | 167 ± 29 nM | 241 ± 21 pmol/g | 1.44 | 10 to 100 nM | C=C1[C@H](O)CC(=C/C=C2\CCC[C@]3(C)[C@@H]([C@H](C)CN4CCC(CC(F)F)CC4)CC[C@@H]23)C[C@H]1O [Compound C059, (1R,3R)-5-(2-((1R,3aS,7aR,E)-1-((S)-1-(4-(2,2-difluoroethyl)piperidin-1-yl)propan-2-yl)-7a-methyloctahydro-4H-inden-4-ylidene)ethylidene)-2-methylenecyclohexane-1,3-diol] | –
11 | 335 ± 85 nM | 614 ± 153 pmol/g | 1.83 | 1 to 10 nM | C=C1[C@H](O)CC(=C/C=C2\CCC[C@]3(C)[C@@H]([C@@H](C)CN4CCC(C(F)F)CC4)CC[C@@H]23)C[C@H]1O [Compound C019] | –
12 | 510 ± 55 nM | 239 ± 23 pmol/g | 0.47 | < 1 nM | C=C1/C(=C\C=C2/CCC[C@]3(C)[C@@H]([C@@H](C)CN4CCC(O)(C(F)(F)F)CC4)CC[C@@H]23)C[C@@H](O)[C@H](C)[C@@H]1O [Compound C006] | –
13 | 132 ± 15 nM | 101 ± 8 pmol/g | 0.77 | 1 to 10 nM | C[C@H](CN1CCC[C@](C)(O)C1)[C@H]1CC[C@H]2/C(=C/C=C3C[C@@H](O)C[C@H](O)C3)CCC[C@]12C [Compound C039, (1R,3R)-5-(2-((1R,3aS,7aR,E)-1-((S)-1-((S)-3-hydroxy-3-methylpiperidin-1-yl)propan-2-yl)-7a-methyloctahydro-4H-inden-4-ylidene)ethylidene)cyclohexane-1,3-diol] | –
14 | 402 ± 38 nM | 156 ± 14 pmol/g | 0.39 | 10 to 100 nM | C[C@H](CN1CCC(O)(C(F)(F)F)CC1)[C@H]1CC[C@H]2/C(=C/C=C3C[C@@H](O)C[C@H](O)C3)CCC[C@]12C [Compound C002, (1R,3R)-5-(2-((1R,3aS,7aR,E)-1-((S)-1-(4-hydroxy-4-(trifluoromethyl)piperidin-1-yl)propan-2-yl)-7a-methyloctahydro-4H-inden-4-ylidene)ethylidene)cyclohexane-1,3-diol] | –
15 | – | – | – | 10 to 100 nM | C[C@@H](CN1CCC(C(F)F)CC1)[C@H]1CC[C@H]2/C(=C/C=C3C[C@@H](O)C[C@H](O)C3)CCC[C@]12C [Compound C018, (1R,3R)-5-(2-((1R,3aS,7aR,E)-1-((R)-1-(4-(difluoromethyl)piperidin-1-yl)propan-2-yl)-7a-methyloctahydro-4H-inden-4-ylidene)ethylidene)cyclohexane-1,3-diol] | –
16 | – | – | – | 100 to 1000 nM | C=C1/C(=C\C=C2/CCC[C@]3(C)[C@@H]([C@H](C)CN4CCC(O)(C(F)F)CC4)CC[C@@H]23)C[C@@H](O)C[C@@H]1O [Compound C021, (1R,3S,Z)-5-(2-((1R,3aS,7aR,E)-1-((S)-1-(4-(difluoromethyl)-4-hydroxypiperidin-1-yl)propan-2-yl)-7a-methyloctahydro-4H-inden-4-ylidene)ethylidene)-4-methylenecyclohexane-1,3-diol] | –
